Calls of active or inactive are those of the source. The calls are words filed in the database; no cut-off is given here.
How the values were obtained:
[1] = Inhibition of HPV11 E1-E2 protein-protein interaction by E1-E2-ori-complex formation assay
[2] = molecular target: Large T antigen (Simian virus 40) (UniProt P03070); experiment: Inhibition of binding of SV40 large T antigen to DNA by scintillation proximity assay; conditions: Betapolyomavirus macacae
Chain of Large T antigen (Simian virus 40) (P03070 whole entry): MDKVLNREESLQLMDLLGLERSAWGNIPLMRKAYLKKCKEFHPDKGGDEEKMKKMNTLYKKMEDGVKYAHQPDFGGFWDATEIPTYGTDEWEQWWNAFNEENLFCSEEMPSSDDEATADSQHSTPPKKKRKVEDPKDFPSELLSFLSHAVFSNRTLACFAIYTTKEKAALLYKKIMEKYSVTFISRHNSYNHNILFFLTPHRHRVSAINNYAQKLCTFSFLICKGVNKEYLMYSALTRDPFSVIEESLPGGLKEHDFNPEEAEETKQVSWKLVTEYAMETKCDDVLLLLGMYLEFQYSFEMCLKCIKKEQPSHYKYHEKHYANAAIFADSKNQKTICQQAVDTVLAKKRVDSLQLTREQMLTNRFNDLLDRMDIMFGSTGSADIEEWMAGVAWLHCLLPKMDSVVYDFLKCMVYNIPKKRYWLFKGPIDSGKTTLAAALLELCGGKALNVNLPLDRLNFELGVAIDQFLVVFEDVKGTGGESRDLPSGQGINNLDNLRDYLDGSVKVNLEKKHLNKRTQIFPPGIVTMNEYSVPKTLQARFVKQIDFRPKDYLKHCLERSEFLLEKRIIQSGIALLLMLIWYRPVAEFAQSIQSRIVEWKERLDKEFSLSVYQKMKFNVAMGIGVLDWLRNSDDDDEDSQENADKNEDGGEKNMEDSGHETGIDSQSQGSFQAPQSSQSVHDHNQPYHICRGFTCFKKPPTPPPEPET

SMILES	IC50 [1]	Activity [2]
CC(C)(C)NC(=O)[C@H]1[C@@H](C(=O)O)C2(O[C@H]1c1ccc(Cl)c(Cl)c1)C(=O)c1ccccc1C2=O	2100 nM	inactive
O=C(Nc1ccc(N2CCOCC2)cc1)[C@H]1[C@@H](C(=O)O)C2(O[C@H]1c1ccc(Br)c(Br)c1)C(=O)c1ccccc1C2=O (stereo in doubt; 19) [listing 1 of 2 here]		inactive
O=C(NCc1ccccc1)[C@H]1[C@@H](C(=O)O)C2(O[C@H]1c1ccc(Cl)c(Cl)c1)C(=O)c1ccccc1C2=O	3500 nM	inactive
CC(=O)Nc1ccccc1NC(=O)[C@H]1[C@@H](C(=O)O)C2(O[C@H]1c1ccc(Cl)c(Cl)c1)C(=O)c1ccccc1C2=O	65000 nM	inactive
O=C(Nc1ccc(N2CCOCC2)cc1)[C@H]1[C@@H](c2ccc(Br)c(Br)c2)OC2(C(=O)c3ccccc3C2=O)[C@H]1C(=O)O	15000 nM	inactive
O=C(Nc1ccccc1)[C@H]1[C@@H](C(=O)O)C2(O[C@H]1c1ccc(Cl)c(Cl)c1)C(=O)c1ccccc1C2=O	680 nM	inactive
O=C(Nc1ccc(N2CCOCC2)cc1)[C@H]1[C@@H](C(=O)O)C2(O[C@H]1c1ccc(Br)c(Br)c1)C(=O)c1ccccc1C2=O (stereo in doubt; 21) [listing 1 of 2 here]		inactive
O=C(Nc1ccc2c(c1)OCO2)[C@H]1[C@@H](C(=O)O)C2(O[C@H]1c1ccc(Cl)cc1)C(=O)c1ccccc1C2=O	7800 nM	inactive
C[C@@H](NC(=O)[C@H]1[C@@H](c2ccc(Cl)c(Cl)c2)O[C@@]23C(=O)c4ccccc4[C@]2(O)OC(=O)[C@@H]13)c1ccccc1	> 75000 nM	inactive
O=C(Nc1ccc2c(c1)OCO2)[C@H]1[C@H]2C(=O)O[C@]3(O)c4ccccc4C(=O)[C@]23O[C@H]1c1ccc(Cl)cc1	6600 nM	inactive
C[C@@H](NC(=O)[C@H]1[C@H]2C(=O)O[C@]3(O)c4ccccc4C(=O)[C@]23O[C@H]1c1ccc(Cl)c(Cl)c1)c1ccccc1	6800 nM	inactive
CC(=O)Nc1cccc(NC(=O)[C@H]2[C@@H](C(=O)O)C3(O[C@H]2c2ccc(Cl)c(Cl)c2)C(=O)c2ccccc2C3=O)c1	740 nM	inactive

Results, then the compound that gave them:

IC50 [1]	Activity [2]	SMILES
460 nM	inactive	Cc1cc2c(s1)C(=O)[C@@]1(O[C@@H](c3ccc(Br)c(Br)c3)[C@@H](C(=O)Nc3ccc(N4CCOCC4)cc3)[C@H]1C(=O)O)C2=O
380 nM	inactive	CC(=O)c1ccc(NC(=O)[C@H]2[C@@H](C(=O)O)C3(O[C@H]2c2ccc(Cl)c(Cl)c2)C(=O)c2ccccc2C3=O)cc1
150 nM	inactive	O=C(Nc1ccc(-c2csnn2)cc1)[C@H]1[C@@H](C(=O)O)C2(O[C@H]1c1ccc(Cl)c(Cl)c1)C(=O)c1ccccc1C2=O
350 nM	inactive	O=C(Nc1ccc2c(c1)OCO2)[C@H]1[C@@H](C(=O)O)C2(O[C@H]1c1ccc(Cl)c(Cl)c1)C(=O)c1ccccc1C2=O
440 nM	inactive	CC(=O)Nc1ccc(NC(=O)[C@H]2[C@@H](C(=O)O)C3(O[C@H]2c2ccc(Cl)c(Cl)c2)C(=O)c2ccccc2C3=O)cc1
88 nM	inactive	O=C(Nc1ccc(N2CCOCC2)cc1)[C@H]1[C@@H](C(=O)O)C2(O[C@H]1c1ccc(Cl)c(Cl)c1)C(=O)c1ccccc1C2=O
51 nM		O=C(Nc1ccc(N2CCOCC2)cc1)[C@H]1[C@@H](C(=O)O)C2(O[C@H]1c1ccc(Br)c(Br)c1)C(=O)c1ccccc1C2=O (stereo in doubt; 19) [listing 2 of 2 here]
180 nM	inactive	Cc1ccc2c(c1)C(=O)[C@@]1(O[C@@H](c3ccc(Cl)c(Cl)c3)[C@@H](C(=O)Nc3ccc(-c4csnn4)cc3)[C@H]1C(=O)O)C2=O
28 nM		O=C(Nc1ccc(N2CCOCC2)cc1)[C@H]1[C@@H](C(=O)O)C2(O[C@H]1c1ccc(Br)c(Br)c1)C(=O)c1ccccc1C2=O (stereo in doubt; 21) [listing 2 of 2 here]
6 nM	inactive	Cc1cc2c(s1)C(=O)[C@]1(O[C@@H](c3ccc(Br)c(Br)c3)[C@@H](C(=O)Nc3ccc(N4CCOCC4)cc3)[C@H]1C(=O)O)C2=O
